Measurements from patent US20260078120A1, “SUBSTITUTED PYRIDOPYRIMIDINONES” (MIRATI THERAPEUTICS, INC., priority 2022, published 2026).

What was measured:
[1] = tested on: T47D (PI3Kα H1047R mutant) cells; test: CellTiter-Glo 2.0 luminescent cell viability assay, 72 hours, T47D cells; type: cell-based; conditions: Homo sapiens, T47D, 72 h, T47D (PI3Kα H1047R mutant) cells, CellTiter-Glo, approximately 72 hours; read-out: T47D (H1047R mutant) Viability IC50
Method in brief: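 Viability was measured by CellTiter-Glo 2.0 luminescence after approximately 72 h of compound exposure at 37° C. Plating was 1000 cells per well the day before dosing, with ten 1:4 dilutions from a 10 µM top concentration. Values as percent of vehicle were fitted by variable-slope log(inhibitor) regression to give IC50.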

[2] = tested on: SKBR3 (PI3Kα wild type) cells; test: CellTiter-Glo 2.0 luminescent cell viability assay, 72 hours, SKBR3 cells; type: cell-based; conditions: Homo sapiens, SK-BR-3, 72 h, SKBR3 (PI3Kα wild type) cells, CellTiter-Glo, approximately 72 hours; read-out: SKBR3 (WT) Viability IC50
Method in brief: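 Viability measured via CTG luminescence following roughly 72 hours of compound exposure at 37° C. Dosing used a 10 um starting concentration diluted 1:4 over 10 points; percent-of-vehicle data fitted with a variable-slope four-parameter model for IC50.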

Structure (SMILES)	IC50 [1] [µM]	IC50 [2] [µM]
Cc1cc([C@@H](C)Nc2ccccc2C(=O)O)c2nc(N3CCN(C4CCOCC4)CC3)c(C#N)c(=O)n2c1 [Example 11-186, (R)-2-((1-(3-cyano-7-methyl-4-oxo-2-(4-(tetrahydro-2H-pyran-4-yl)piperazin-1-yl)-4H-pyrido[1,2-a]pyrimidin-9-yl)ethyl)amino)benzoic acid]	0.606	> 10
Cc1cc([C@@H](C)Nc2ccccc2C(=O)O)c2nc(N3CCN(C4COC4)CC3)c(C)c(=O)n2c1 [Example 11-153, (R)-2-((1-(3,7-dimethyl-2-(4-(oxetan-3-yl)piperazin-1-yl)-4-oxo-4H-pyrido[1,2-a]pyrimidin-9-yl)ethyl)amino)benzoic acid]	0.88	> 10
Cc1cc([C@@H](C)Nc2ccc(C)nc2C(=O)O)c2nc(N3CCC(F)(F)CC3)c(C#N)c(=O)n2c1 [Example 10-17, (R)-3-((1-(3-cyano-2-(4,4-difluoropiperidin-1-yl)-7-methyl-4-oxo-4H-pyrido[1,2-a]pyrimidin-9-yl)ethyl)amino)-6-methylpicolinic acid]	0.0384	> 10
Cc1cc([C@@H](C)Nc2ccccc2C(=O)O)c2nc(NCC3COC3)c(C)c(=O)n2c1 [Example 11-205, (R)-2-((1-(3,7-dimethyl-2-((oxetan-3-ylmethyl)amino)-4-oxo-4H-pyrido[1,2-a]pyrimidin-9-yl)ethyl)amino)benzoic acid]	1.56	> 10
Cc1cc([C@@H](C)Nc2ccccc2C(=O)O)c2nc(N3C[C@H](F)C[C@H](F)C3)c(C#N)c(=O)n2c1 [Example 11-48, 2-(((R)-1-(3-cyano-2-((3R,5S)-3,5-difluoropiperidin-1-yl)-7-methyl-4-oxo-4H-pyrido[1,2-a]pyrimidin-9-yl)ethyl)amino)benzoic acid]	0.854	> 10
Cc1cc([C@@H](C)Nc2ccccc2C(=O)O)c2nc(N3CC[C@@H]3C)c(C)c(=O)n2c1 [Example 11-101, 2-(((R)-1-(3,7-dimethyl-2-((S)-2-methylazetidin-1-yl)-4-oxo-4H-pyrido[1,2-a]pyrimidin-9-yl)ethyl)amino)benzoic acid]	0.18	> 10
C[C@@H](Nc1ccccc1C(=O)O)c1cc(Cl)cn2c(=O)c(C#N)c(N3CCC(F)(F)CC3)nc12 [Example 10-26, (R)-2-((1-(7-chloro-3-cyano-2-(4,4-difluoropiperidin-1-yl)-4-oxo-4H-pyrido[1,2-a]pyrimidin-9-yl)ethyl)amino)benzoic acid]	0.0505	> 10
Cc1cc([C@@H](C)Nc2ccccc2C(=O)O)c2nc(N3CC[C@H]3C)c(C)c(=O)n2c1 [Example 11-100, 2-(((R)-1-(3,7-dimethyl-2-((R)-2-methylazetidin-1-yl)-4-oxo-4H-pyrido[1,2-a]pyrimidin-9-yl)ethyl)amino)benzoic acid]	0.225	> 10
Cc1cc([C@@H](C)Nc2ccccc2C(=O)O)c2nc(N3CCNCC3)c(C#N)c(=O)n2c1 [Example 11-296, (R)-2-((1-(3-cyano-7-methyl-4-oxo-2-(piperazin-1-yl)-4H-pyrido[1,2-a]pyrimidin-9-yl)ethyl)amino)benzoic acid]	> 10	> 10
Cc1cc([C@@H](C)Nc2ccccc2C(=O)O)c2nc(-c3cn(-c4ccc(C#N)cc4)cn3)c(C)c(=O)n2c1 [Example 11-236, (R)-2-((1-(2-(1-(4-cyanophenyl)-1H-imidazol-4-yl)-3,7-dimethyl-4-oxo-4H-pyrido[1,2-a]pyrimidin-9-yl)ethyl)amino)benzoic acid]	0.679	> 10
Cc1cc([C@@H](C)Nc2ccncc2C(=O)O)c2nc(N3CCC(F)(F)CC3)c(C#N)c(=O)n2c1 [Example 11-142, (R)-4-((1-(3-cyano-2-(4,4-difluoropiperidin-1-yl)-7-methyl-4-oxo-4H-pyrido[1,2-a]pyrimidin-9-yl)ethyl)amino)nicotinic acid]	> 10	> 10
Cc1cc([C@@H](C)Nc2ccccc2C(=O)O)c2nc(N3C4CCC3c3ccccc34)c(C#N)c(=O)n2c1 [Example 11-214, 2-(((1R)-1-(3-cyano-7-methyl-4-oxo-2-(1,2,3,4-tetrahydro-1,4-epiminonaphthalen-9-yl)-4H-pyrido[1,2-a]pyrimidin-9-yl)ethyl)amino)benzoic acid]	0.262	> 10

The remaining lines, values ahead:

IC50 [1] [µM]	IC50 [2] [µM]	Structure (SMILES)
0.121	> 10	Cc1cc([C@@H](C)Nc2ccccc2C(=O)O)c2nc(NCC(C)C)c(C#N)c(=O)n2c1 [Example 11-308, (R)-2-((1-(3-cyano-2-(isobutylamino)-7-methyl-4-oxo-4H-pyrido[1,2-a]pyrimidin-9-yl)ethyl)amino)benzoic acid]
7.64	> 10	Cc1cc(C(C)Nc2ccccc2C(=O)O)c2nc(-c3cn[nH]c3)cc(=O)n2c1 (stereo not drawn) [Example 11-373, 2-((1-(7-methyl-4-oxo-2-(1H-pyrazol-4-yl)-4H-pyrido[1,2-a]pyrimidin-9-yl)ethyl)amino)benzoic acid]
0.188	> 10	Cc1cc([C@@H](C)Nc2ccccc2C(=O)O)c2nc(N3CCN(c4cccc(C#N)c4C)CC3)c(C)c(=O)n2c1 [Example 11-438, (R)-2-((1-(2-(4-(3-cyano-2-methylphenyl)piperazin-1-yl)-3,7-dimethyl-4-oxo-4H-pyrido[1,2-a]pyrimidin-9-yl)ethyl)amino)benzoic acid]
> 10	> 10	Cc1cc(C(C)Nc2ccccc2C(=O)O)c2nc(Oc3ccccc3)cc(=O)n2c1 (stereo not drawn) [Example 11-341, 2-((1-(7-methyl-4-oxo-2-phenoxy-4H-pyrido[1,2-a]pyrimidin-9-yl)ethyl)amino)benzoic acid]
> 10	> 10	COc1cc(=O)n2cc(C)cc(C(C)Nc3ccccc3C(=O)O)c2n1 (stereo not drawn) [Example 11-372, 2-((1-(2-methoxy-7-methyl-4-oxo-4H-pyrido[1,2-a]pyrimidin-9-yl)ethyl)amino)benzoic acid]
0.703	> 10	Cc1cc([C@@H](C)Nc2ccc(C(F)(F)F)nc2C(=O)O)c2nc(N3Cc4ccccc4C3)c(C)c(=O)n2c1 [Example 11-354, (R)-3-((1-(2-(isoindolin-2-yl)-3,7-dimethyl-4-oxo-4H-pyrido[1,2-a]pyrimidin-9-yl)ethyl)amino)-6-(trifluoromethyl)picolinic acid]
9.07	3.04	Cc1cc(C(C)Nc2ccccc2C(=O)O)c2nc(OC3CCOC3)cc(=O)n2c1 (stereo not drawn) [Example 11-371, 2-((1-(7-methyl-4-oxo-2-((tetrahydrofuran-3-yl)oxy)-4H-pyrido[1,2-a]pyrimidin-9-yl)ethyl)amino)benzoic acid]
4.47	> 10	Cc1cc(C(C)Nc2ccccc2C(=O)O)c2nc(N3CCCC(C)(O)C3)cc(=O)n2c1 (stereo not drawn) [Example 11-342, 2-((1-(2-(3-hydroxy-3-methylpiperidin-1-yl)-7-methyl-4-oxo-4H-pyrido[1,2-a]pyrimidin-9-yl)ethyl)amino)benzoic acid]
0.114	> 10	Cc1cc([C@@H](C)Nc2ccccc2C(=O)O)c2nc(N3CCC(F)(F)CC3)c(C)c(=O)n2c1 [Example 11-303, (R)-2-((1-(2-(4,4-difluoropiperidin-1-yl)-3,7-dimethyl-4-oxo-4H-pyrido [1,2-a]pyrimidin-9-yl)ethyl)amino)benzoic acid]
